PubChem BioAssay AID2060506 (Molecular Pharmacology Branch, DTP, NCI, 2025)

Tested on: 598228-144-R-J1-PDC complex spheroid viability
Test: Anticancer human tumor 598228-144-R-J1-PDC patient-derived serous endometrial adenocarcinoma cell line growth inhibition [GQUAD]
Settings: for IC50: curve of first compound; for viability, T/C: stronger effect = lower value
Summary of the method: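 Multi-cell-type spheroids of tumor cells with HUVEC and mesenchymal stem cells, treated with drug combinations. Concentrations descend in half-log steps from near clinical Cmax, or from 10 microM where Cmax is unknown; viability read-out.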

[1] = second compound 0.0316 µM, first compound 0.0316 µM
[2] = second compound 0.0316 µM, first compound 0.316 µM
[3] = second compound 0.1 µM, first compound 0.0316 µM
[4] = second compound 0.1 µM, first compound 0.316 µM
[5] = second compound 0.316 µM, first compound 0.0316 µM
[6] = second compound 0.316 µM, first compound 0.316 µM
[7] = second compound 1 µM, first compound 0.0316 µM
[8] = second compound 1 µM, first compound 0.316 µM
[9] = second compound 3.16 µM, first compound 0.0316 µM
[10] = second compound 3.16 µM, first compound 0.316 µM
[11] = second compound 10 µM, first compound 0.0316 µM
[12] = second compound 10 µM, first compound 0.316 µM
[13] = second compound 0.0316 µM, first compound 0.1 µM
[14] = second compound 0.0316 µM, first compound 1 µM
[15] = second compound 0.0316 µM, first compound 3.16 µM
[16] = second compound 0.0316 µM, first compound 10 µM
[17] = second compound 0.1 µM, first compound 0.1 µM
[18] = second compound 0.1 µM, first compound 1 µM
[19] = second compound 0.1 µM, first compound 3.16 µM
[20] = second compound 0.1 µM, first compound 10 µM
[21] = second compound 0.316 µM, first compound 0.1 µM
[22] = second compound 0.316 µM, first compound 1 µM
[23] = second compound 0.316 µM, first compound 3.16 µM
[24] = second compound 0.316 µM, first compound 10 µM
[25] = second compound 1 µM, first compound 0.1 µM
[26] = second compound 1 µM, first compound 1 µM
[27] = second compound 1 µM, first compound 3.16 µM
[28] = second compound 1 µM, first compound 10 µM
[29] = second compound 3.16 µM, first compound 0.1 µM
[30] = second compound 3.16 µM, first compound 1 µM
[31] = second compound 3.16 µM, first compound 3.16 µM
[32] = second compound 3.16 µM, first compound 10 µM
[33] = second compound 10 µM, first compound 0.1 µM
[34] = second compound 10 µM, first compound 1 µM
[35] = second compound 10 µM, first compound 3.16 µM
[36] = second compound 10 µM, first compound 10 µM
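Note: spheroids exposed to the agents for one week before reading.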
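Throughout, for viability, T/C: percent of vehicle DMSO control viability so 100% = untreated growth.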

SMILES: CCc1c2c(nc3ccc(O)cc13)-c1cc3c(c(=O)n1C2)COC(=O)[C@]3(O)CC + CN(C)c1ccc(Nc2c3ccc(NC(=O)CCN4CCCC4)cc3nc3cc(NC(=O)CCN4CCCC4)ccc23)cc1
- IC50 (second compound 0.0316 µM): 7.57 nM
- IC50 (second compound 0.1 µM): 13.5 nM
- IC50 (second compound 0.316 µM): 12.1 nM
- IC50 (second compound 1 µM): < 0.999 nM
- IC50 (second compound 3.16 µM): 15 nM
- IC50 (second compound 10 µM): < 0.999 nM
- viability, T/C (second compound 0.0316 µM, first compound 0.000999 µM): 68.8%
- viability, T/C (second compound 0.0316 µM, first compound 0.00316 µM): 56.2%
- viability, T/C (second compound 0.0316 µM, first compound 0.00999 µM): 45.6%
- viability, T/C [1]: 39.7%
- viability, T/C (second compound 0.0316 µM, first compound 0.0999 µM): 30.5%
- viability, T/C [2]: 18.8%
- viability, T/C (second compound 0.1 µM, first compound 0.000999 µM): 65.3%
- viability, T/C (second compound 0.1 µM, first compound 0.00316 µM): 53.1%
- viability, T/C (second compound 0.1 µM, first compound 0.00999 µM): 56.1%
- viability, T/C [3]: 41.2%
- viability, T/C (second compound 0.1 µM, first compound 0.0999 µM): 25.3%
- viability, T/C [4]: 15.5%
- viability, T/C (second compound 0.316 µM, first compound 0.000999 µM): 70.2%
- viability, T/C (second compound 0.316 µM, first compound 0.00316 µM): 50.4%
- viability, T/C (second compound 0.316 µM, first compound 0.00999 µM): 45.7%
- viability, T/C [5]: 55.3%
- viability, T/C (second compound 0.316 µM, first compound 0.0999 µM): 27.7%
- viability, T/C [6]: 16.9%
- viability, T/C (second compound 1 µM, first compound 0.000999 µM): 50.5%
- viability, T/C (second compound 1 µM, first compound 0.00316 µM): 42%
- viability, T/C (second compound 1 µM, first compound 0.00999 µM): 49.9%
- viability, T/C [7]: 49%
- viability, T/C (second compound 1 µM, first compound 0.0999 µM): 27.7%
- viability, T/C [8]: 15.9%
- viability, T/C (second compound 3.16 µM, first compound 0.000999 µM): 58.6%
- viability, T/C (second compound 3.16 µM, first compound 0.00316 µM): 57.2%
- viability, T/C (second compound 3.16 µM, first compound 0.00999 µM): 59.1%
- viability, T/C [9]: 37.4%
- viability, T/C (second compound 3.16 µM, first compound 0.0999 µM): 26%
- viability, T/C [10]: 16.8%
- viability, T/C (second compound 10 µM, first compound 0.000999 µM): 60.6%
- viability, T/C (second compound 10 µM, first compound 0.00316 µM): 33.6%
- viability, T/C (second compound 10 µM, first compound 0.00999 µM): 37.7%
- viability, T/C [11]: 45.6%
- viability, T/C (second compound 10 µM, first compound 0.0999 µM): 23.5%
- viability, T/C [12]: 10.5%

SMILES: COc1cc(C2c3cc4c(cc3C(OC3OC5COC(C)OC5C(O)C3O)C3COC(=O)C23)OCO4)cc(OC)c1O (stereo not drawn) + CN(C)c1ccc(Nc2c3ccc(NC(=O)CCN4CCCC4)cc3nc3cc(NC(=O)CCN4CCCC4)ccc23)cc1
- IC50 (second compound 0.0316 µM): 8170 nM
- IC50 (second compound 0.1 µM): 5140 nM
- IC50 (second compound 0.316 µM): 5390 nM
- IC50 (second compound 1 µM): 898 nM
- IC50 (second compound 3.16 µM): 5140 nM
- IC50 (second compound 10 µM): 471 nM
- viability, T/C [1]: 114%
- viability, T/C [13]: 105%
- viability, T/C [2]: 75.5%
- viability, T/C [14]: 65.5%
- viability, T/C [15]: 71.5%
- viability, T/C [16]: 42.1%
- viability, T/C [3]: 102%
- viability, T/C [17]: 84.2%
- viability, T/C [4]: 78.6%
- viability, T/C [18]: 61.3%
- viability, T/C [19]: 61.5%
- viability, T/C [20]: 40.3%
- viability, T/C [5]: 103%
- viability, T/C [21]: 95%
- viability, T/C [6]: 70.8%
- viability, T/C [22]: 61.6%
- viability, T/C [23]: 65.4%
- viability, T/C [24]: 39.6%
- viability, T/C [7]: 93.6%
- viability, T/C [25]: 114%
- viability, T/C [8]: 71.3%
- viability, T/C [26]: 55.9%
- viability, T/C [27]: 54.9%
- viability, T/C [28]: 32.5%
- viability, T/C [9]: 95%
- viability, T/C [29]: 75.6%
- viability, T/C [10]: 80%
- viability, T/C [30]: 56.4%
- viability, T/C [31]: 70.3%
- viability, T/C [32]: 35.7%
- viability, T/C [11]: 92.9%
- viability, T/C [33]: 71.8%
- viability, T/C [12]: 53%
- viability, T/C [34]: 40.7%
- viability, T/C [35]: 60.3%
- viability, T/C [36]: 34.9%

SMILES: COc1cccc2c1C(=O)c1c(O)c3c(c(O)c1C2=O)CC(O)(C(=O)CO)CC3OC1CC(N)C(O)C(C)O1 (stereo not drawn) + CN(C)c1ccc(Nc2c3ccc(NC(=O)CCN4CCCC4)cc3nc3cc(NC(=O)CCN4CCCC4)ccc23)cc1
- IC50 (second compound 0.0316 µM): 547 nM
- IC50 (second compound 0.1 µM): 586 nM
- IC50 (second compound 0.316 µM): 617 nM
- IC50 (second compound 1 µM): 655 nM
- IC50 (second compound 3.16 µM): 774 nM
- IC50 (second compound 10 µM): 536 nM
- viability, T/C [1]: 79.1%
- viability, T/C [13]: 83.3%
- viability, T/C [2]: 66.6%
- viability, T/C [14]: 31%
- viability, T/C [15]: 1.02%
- viability, T/C [16]: 0.57%
- viability, T/C [3]: 95.5%
- viability, T/C [17]: 84.8%
- viability, T/C [4]: 71%
- viability, T/C [18]: 33.5%
- viability, T/C [19]: 2.25%
- viability, T/C [20]: 0.29%
- viability, T/C [5]: 96.1%
- viability, T/C [21]: 73.2%
- viability, T/C [6]: 68.9%
- viability, T/C [22]: 42.2%
- viability, T/C [23]: 3.61%
- viability, T/C [24]: 0.89%
- viability, T/C [7]: 87.1%
- viability, T/C [25]: 73.7%
- viability, T/C [8]: 58.4%
- viability, T/C [26]: 51.9%
- viability, T/C [27]: 1.46%
- viability, T/C [28]: 1.05%
- viability, T/C [9]: 81.6%
- viability, T/C [29]: 80.1%
- viability, T/C [10]: 71.6%
- viability, T/C [30]: 44.3%
- viability, T/C [31]: 1.7%
- viability, T/C [32]: 0.36%
- viability, T/C [11]: 59.8%
- viability, T/C [33]: 64.5%
- viability, T/C [12]: 47.7%
- viability, T/C [34]: 42.3%
- viability, T/C [35]: 1.22%
- viability, T/C [36]: 0.77%

SMILES: Nc1ccn(C2OC(CO)C(O)C2(F)F)c(=O)n1 (stereo not drawn) + CN(C)c1ccc(Nc2c3ccc(NC(=O)CCN4CCCC4)cc3nc3cc(NC(=O)CCN4CCCC4)ccc23)cc1
- IC50 (second compound 0.0316 µM): < 31.6 nM
- IC50 (second compound 0.1 µM): < 31.6 nM
- IC50 (second compound 0.316 µM): 38.9 nM
- IC50 (second compound 1 µM): 75.5 nM
- IC50 (second compound 3.16 µM): 91.7 nM
- IC50 (second compound 10 µM): < 31.6 nM
- viability, T/C [1]: 49.8%
- viability, T/C [13]: 42.5%
- viability, T/C [2]: 39.4%
- viability, T/C [14]: 36.3%
- viability, T/C [15]: 39.8%
- viability, T/C [16]: 37.5%
- viability, T/C [3]: 52.4%
- viability, T/C [17]: 41.9%
- viability, T/C [4]: 38.6%
- viability, T/C [18]: 43.2%
- viability, T/C [19]: 57.3%
- viability, T/C [20]: 49.5%
- viability, T/C [5]: 49.3%
- viability, T/C [21]: 51.6%
- viability, T/C [6]: 43.3%
- viability, T/C [22]: 43.2%
- viability, T/C [23]: 45.8%
- viability, T/C [24]: 43.6%
- viability, T/C [7]: 60.8%
- viability, T/C [25]: 51.3%
- viability, T/C [8]: 35.4%
- viability, T/C [26]: 33.1%
- viability, T/C [27]: 41.5%
- viability, T/C [28]: 43.4%
- viability, T/C [9]: 58.8%
- viability, T/C [29]: 45.5%
- viability, T/C [10]: 49.7%
- viability, T/C [30]: 37.5%
- viability, T/C [31]: 45.6%
- viability, T/C [32]: 36.4%
- viability, T/C [11]: 44.1%
- viability, T/C [33]: 28.5%
- viability, T/C [12]: 29.6%
- viability, T/C [34]: 26.2%
- viability, T/C [35]: 24%
- viability, T/C [36]: 26.9%
